Test system: Plasmodium falciparum 3D7
Experiment: P. falciparum 3D7 asexual blood stage assay, Assay Procedure Version 1 (SYBR green readout)
Assay type: cell-based
Conditions: 3D7, Erythrocyte, Version 1 of the assay procedure (no asterisk), 72 h incubation in infected erythrocytes, 10,000 nM to 0.51 nM
Description: Asexual Blood Stage Assay
The assay used to measure the effect of test compounds on a bloodstream stage of Plasmodium falciparum 3D7 strain employs SYBR green as the readout. This is a dye that binds to double stranded deoxyribonucleic acid (DNA) with a resulting increase in fluorescence, allowing detection of P. falciparum DNA in infected erythrocytes, and thereby providing a measure of parasite growth and propagation.
P. falciparum Culture Maintenance
Erythrocytes (A+blood) were prepared for both parasite culture and assay by washing 4 times with incomplete media (15.9 g RPMI 1640 (25 mM HEPES, L-glutamine), 1 g NaHCO3, 2 g glucose, 400 μL gentacin (500 mg/mL), 2 mL hypoxanthine solution (13.6 g/L in 0.1M NaOH pH 7.3) in 1 litre of media). The cells were centrifuged at 1800 g for 5 minutes, before decanting the supernatant and re-suspending in fresh incomplete media. On the final wash, the cells were re-suspended in complete media (incomplete media with 5 g/L AlbumaxII), and centrifuged at 1800 g for 3 minutes. This cell sediment was treated as 100% haematocrit.
P. falciparum 3D7 was cultured in erythrocytes at 5% haematocrit in complete media at 37° C. (1% O2, 3% CO2, balance N2). Cultures were split on a weekly basis to achieve a 1% parasitaemia in erythrocites at 5% haematocrit in fresh media. Culture media is replaced by fresh media every other day (2 times during the week).
Assay Procedure—Version 1
On day 1, test compounds were added to assay plates using Echo dispensing technology (3 fold dilution and 10 points titration). 50 nL of each compound dilution was added to 50 μL of culture (5% haematocrit, 0.5% parasitaemia) and incubated for 72 h at 37° C. (1% O2, 3% CO2, balance N2). Final concentrations of test compounds ranged from 10,000 nM to 0.51 nM, in […].
On day 4, 10 μL SYBR green (Invitrogen S7563 supplied as 10,000×concentrate in DMSO) pre-diluted to 3× concentrate with Lysis buffer (20 mM Tris pH 7.9, 5% EDTA, 0.16% w/v, 1.6% TX100 v/v) was added to the cultures and incubated in the dark, overnight, at room temperature.
On day 5, fluorescent signal was measured using a BioTek plate reader (excitation 485 nm, emission 528 nm). All data were processed using IDBS ActivityBase. Raw data were converted into percent inhibition through linear regression by setting the high inhibition control as 100% and the no inhibition control as 0%. Quality control criteria for passing plates were as follows: Z′>0.5, S:B>3, % CV(no inhibition control)<15. The formula used to calculate Z′ is
All EC50 curve fitting was undertaken using the following 4 parametric equation:
[formula] where A=% inhibition at bottom; B=% inhibition at top; C=EC50; D=slope; x=inhibitor concentration; and y=% inhibition. […] Assay Procedure—Version 2

| Compound | IC50 [nM] |
| --- | --- |
| C[C@@]1(c2cccc(Nc3ccccc3)c2Cl)CC(=O)N([C@H]2CCOC2)C(=N)N1 (relative stereo) [Example 5, (6S)-6-(3-Anilino-2-chloro-phenyl)-2-imino-6-methyl-3-[(3S or 3R*)-tetrahydrofuran-3-yl]hexahydropyrimidin-4-one] | 120 |
| C[C@@]1(c2cccc(Nc3ccccc3)c2Cl)CC(=O)N([C@@H]2CCOC2)C(=N)N1 (relative stereo) [Example 6, (6S)-6-(3-Anilino-2-chloro-phenyl)-2-imino-6-methyl-3-[(3S or 3R*)-tetrahydrofuran-3-yl]hexahydropyrimidin-4-one] | 70 |
| C[C@@]1(c2cccc(Nc3ccc(F)cc3)c2Cl)CC(=O)N([C@@H]2CCOC2)C(=N)N1 (relative stereo) [Example 169, (6S)-6-[2-Chloro-3-(4-fluoro-anilino)phenyl]-2-imino-6-methyl-3-[(3R*)-tetrahydro-furan-3-yl]hexahydropyrimidin-4-one] | 323 |
| C[C@@]1(c2cccc(Nc3ccc(F)cc3)c2Cl)CC(=O)N([C@@H]2CCCOC2)C(=N)N1 (relative stereo) [Example 190, (6S)-6-[2-Chloro-3-(4-fluoro-anilino)phenyl]-2-imino-6-methyl-3-[(3R* or 3S)-tetrahydropyran-3-yl]-hexahydropyrimidin-4-one] | 2580 |
| C[C@@H]1C[C@H](N2C(=N)N[C@](C)(c3cccc(Nc4cnc(C5CC5)nc4)c3Cl)CC2=O)CCO1 (relative stereo) [Example 204, (6S)-6-{2-Chloro-3-[(2-cyclo-propylpyrimidin-5-yl)amino]-phenyl}-2-imino-6-methyl-3-[(2R*,4R*)-2-methyltetrahydro-pyran-4-yl]hexahydropyrimidin-4-one] | 31 |
| C[C@@]1(c2cccc(Nc3ccc(F)cc3)c2Cl)CC(=O)N(CC2CCOCC2)C(=N)N1 (single isomer, unassigned) [Example 170, (6S*)-6-[2-Chloro-3-(4-fluoro-anilino)phenyl]-2-imino-6-methyl-3-(tetrahydropyran-4-ylmethyl)hexahydropyrimidin-4-one] | 492 |
| C[C@@]1(c2cccc(Nc3ccc(F)cc3)c2Cl)CC(=O)N(C2CCCOC2)C(=N)N1 (single isomer, unassigned) [Example 189, (6S)-6-[2-Chloro-3-(4-fluoro-anilino)phenyl]-2-imino-6-methyl-3-[(3S*)-tetrahydro-pyran-3-yl]hexahydropyrimidin-4-one] | 820 |
| C[C@@]1(c2cccc(Nc3ccccc3)c2Cl)CC(=O)N(CC2(O)CC2)C(=N)N1 [Example 1, (6S)-6-(3-Anilino-2-chloro-phenyl)-3-[(1-hydroxy-cyclopropyl)methyl]-2-imino-6-methylhexahydropyrimidin-4-one] | 400 |
| C[C@@]1(c2cccc(Nc3ccccc3)c2Cl)CC(=O)N(C2CCOCC2)C(=N)N1 [Example 2, (6S)-6-(3-Anilino-2-chloro-phenyl)-2-imino-6-methyl-3-(tetrahydropyran-4-yl)-hexahydropyrimidin-4-one] | 150 |
| C[C@@]1(c2cccc(Nc3ccccc3)c2Cl)CC(=O)N(CC2CCOCC2)C(=N)N1 [Example 3, (6S)-6-(3-Anilino-2-chloro-phenyl)-2-imino-6-methyl-3-(tetrahydropyran-4-ylmethyl)-hexahydropyrimidin-4-one] | 80 |
| C[C@@]1(c2cccc(Nc3ccccc3)c2Cl)CC(=O)N(C2CCCCC2)C(=N)N1 [Example 4, (6S)-6-(3-Anilino-2-chloro-phenyl)-3-cyclohexyl-2-imino-6-methylhexahydropyrimidin-4-one] | 75 |
| C[C@@]1(c2cccc(Nc3cccc(Cl)c3)c2Cl)CC(=O)N(C2CCOCC2)C(=N)N1 [Example 7, (6S)-6-[2-Chloro-3-(3-chloro-anilino)phenyl]-2-imino-6-methyl-3-(tetrahydropyran-4-yl)hexahydropyrimidin-4-one] | 334 |
| Cc1cccc(Nc2cccc([C@]3(C)CC(=O)N(C4CCOCC4)C(=N)N3)c2Cl)c1 [Example 8, (6S)-6-[2-Chloro-3-(3-methyl-anilino)phenyl]-2-imino-6-methyl-3-(tetrahydropyran-4-yl)hexahydropyrimidin-4-one] | 330 |
| C[C@@]1(c2cccc(Nc3cccc(C#N)c3)c2Cl)CC(=O)N(C2CCOCC2)C(=N)N1 [Example 9, 3-{2-Chloro-3-[(4S)-2-imino-4-methyl-6-oxo-1-(tetrahydro-pyran-4-yl)hexahydropyrimidin-4-yl]anilino}benzonitrile] | 333 |
| Cc1cc(Nc2cccc([C@]3(C)CC(=O)N(C4CCOCC4)C(=N)N3)c2Cl)ccc1F [Example 10, (6S)-6-[2-Chloro-3-(4-fluoro-3-methylanilino)phenyl]-2-imino-6-methyl-3-(tetrahydropyran-4-yl)hexahydropyrimidin-4-one] | 690 |
| C[C@@]1(c2cccc(Nc3ccc(C(F)(F)F)cc3)c2Cl)CC(=O)N(C2CCOCC2)C(=N)N1 [Example 11, (6S)-6-{2-Chloro-3-[4-(tri-fluoromethyl)anilino]phenyl}-2-imino-6-methyl-3-(tetrahydro-pyran-4-yl)hexahydropyrimidin-4-one] | 820 |
| C[C@@]1(c2cccc(Nc3ccc(F)cc3)c2Cl)CC(=O)N(C2CCOCC2)C(=N)N1 [Example 12, (6S)-6-[2-Chloro-3-(4-fluoro-anilino)phenyl]-2-imino-6-methyl-3-(tetrahydropyran-4-yl)hexahydropyrimidin-4-one] | 200 |
| C[C@@]1(c2cccc(Nc3ccccc3)c2Cl)CC(=O)N([C@H]2C[C@@](C)(O)C2)C(=N)N1 [Example 13, (6S)-6-(3-Anilino-2-chloro-phenyl)-3-(3-hydroxy-3-methyl-cyclobutyl)-2-imino-6-methyl-hexahydropyrimidin-4-one] | 230 |
| Cc1ccc(Nc2cccc([C@]3(C)CC(=O)N(C4CCOCC4)C(=N)N3)c2Cl)cn1 [Example 14, (6S)-6-{2-Chloro-3-[(6-methyl-pyridin-3-yl)amino]phenyl}-2-imino-6-methyl-3-(tetrahydro-pyran-4-yl)hexahydropyrimidin-4-one] | 280 |
| C[C@@]1(c2cccc(Nc3ccccc3Cl)c2Cl)CC(=O)N(C2CCOCC2)C(=N)N1 [Example 15, (6S)-6-[2-Chloro-3-(2-chloro-anilino)phenyl]-2-imino-6-methyl-3-(tetrahydropyran-4-yl)hexahydropyrimidin-4-one] | 1530 |
| C[C@@]1(c2cccc(Nc3ccccc3C(F)(F)F)c2Cl)CC(=O)N(C2CCOCC2)C(=N)N1 [Example 16, (6S)-6-{2-Chloro-3-[2-(trifluoromethyl)anilino]-phenyl}-2-imino-6-methyl-3-(tetrahydropyran-4-yl)-hexahydropyrimidin-4-one] | 2290 |
| C[C@@]1(c2cccc(Nc3ccccc3C#N)c2Cl)CC(=O)N(C2CCOCC2)C(=N)N1 [Example 17, 2-{2-Chloro-3-[(4S)-2-imino-4-methyl-6-oxo-1-(tetrahydro-pyran-4-yl)hexahydropyrimidin-4-yl]anilino}benzonitrile] | 270 |
| C[C@@]1(c2cccc(Nc3ccc(C#N)cc3)c2Cl)CC(=O)N(C2CCOCC2)C(=N)N1 [Example 18, 4-{2-Chloro-3-[(4S)-2-imino-4-methyl-6-oxo-1-(tetrahydro-pyran-4-yl)hexahydropyrimidin-4-yl]anilino}benzonitrile] | 534 |
| Cc1ncc(Nc2cccc([C@]3(C)CC(=O)N(C4CCOCC4)C(=N)N3)c2Cl)cn1 [Example 19, (6S)-6-{2-Chloro-3-[(2-methyl-pyrimidin-5-yl)amino]phenyl}-2-imino-6-methyl-3-(tetrahydro-pyran-4-yl)hexahydropyrimidin-4-one] | 996 |
| C[C@@]1(c2cccc(Nc3cccnc3)c2Cl)CC(=O)N(C2CCOCC2)C(=N)N1 [Example 20, (6S)-6-[2-Chloro-3-(pyridin-3-ylamino)phenyl]-2-imino-6-methyl-3-(tetrahydropyran-4-yl)hexahydropyrimidin-4-one] | 2310 |
| C[C@@]1(c2cccc(Nc3cccc4ncccc34)c2Cl)CC(=O)N(C2CCOCC2)C(=N)N1 [Example 21, (6S)-6-[2-Chloro-3-(quinolin-5-ylamino)phenyl]-2-imino-6-methyl-3-(tetrahydropyran-4-yl)hexahydropyrimidin-4-one] | 1180 |
